Non-standard residues stand in square brackets, D forms with d. Residues, ends and D or L forms follow the SMILES beside them. No end group written: not given here. ξ: configuration not given here. Pro(trans-4-F) = O=C(O)[C@@H]1C[C@@H](F)CN1; Pro(4,4-Me2) = CC1(C)CN[C@H](C(=O)O)C1; Pro(4-oxo) = O=C1CN[C@H](C(=O)O)C1; Hyp = O=C(O)[C@@H]1C[C@@H](O)CN1; Thr(3ξ) = CC(O)[C@H](N)C(=O)O
Experiments:
[1] = tested on: cornea of rats with dry eye syndrome (ELGE); assay: Corneal permeability of fluorescent dye (corneal damage) in rats with ELGE-induced dry eye syndrome; format: in vivo, rat; settings: 0.3% solution, day 14 after the administration
From the text: In order to evaluate the eye protection effect on dry eye syndrome by YDE-001 to YDE-028 prepared in Working Example 1, a total of 320 Sprague-Dawley-type male rats (OrientBio, Seungnam, Korea) were adapted for 7 days. Thereafter, dry eye syndrome was induced in 264 test rats through extraorbital lacrimal gland excision (hereinafter, ELGE). 8 test rats without the eye abnormality were subjected to a sham operation as a control group.
The rats were systemically anesthetized by inhaling a mixed gas of 2% to 3% of isoflurane (Hana Pharm. Co., Hwasung, Korea), 70% of N2O, and 28.6% of O2 using a rodent anesthesia machine (Surgivet, Waukesha, Wis., USA) and a ventilator (Model 687, Harvard Apparatus, Cambridge, UK). Thereafter, the extraorbital lacrimal gland located in the subdermal area above the masseter muscle and under the optic nerve was excised through a transverse incision in a size of 10 mm on the anterior part of the left ear tragus. The skin was sutured by a general method. […] After 6 days following the ELGE operation, confirmation was performed through the Schirmer test by measuring the amount of tear secretion whether dry eye syndrome had been induced. Meanwhile, each rat of the control group with the sham operation was checked for the presence and location of the extraorbital lacrimal gland through a skin incision, and the skin was then sutured without the excision thereof (FIG. 134).
In addition, in order to evaluate the eye protection effect on dry eye syndrome by YDE-029 to YDE-043 prepared in Working Example 1, a total of 200 Sprague-Dawley-type male rats (OrientBio, Seungnam, Korea) were adapted for 7 days. Dry eye syndrome was induced in 165 test rats through the ELGE. 8 test rats without the eye abnormality were subjected to the sham operation as a control group. The ELGE was carried out as described above.
(§1) For YDE-001 to YDE-028, YY-102 and the 28 YDE-series were each dissolved in physiological saline at a concentration of 3 mg/ml and administered at a dose of 5 μl/eye at 9:30 am and 3:30 pm daily for 14 days after 7 days from the ELGE operation for a total of 28 times. The DS solution was dissolved in physiological saline at a concentration of 30 mg/ml and administered at a dose of 5 μl/eye twice a day for 14 days after 7 days from the ELGE operation for a total of 28 times. For the sham control and the ELGE control groups, the same stimulation as the administration was applied. In order to prevent excessive eye dryness, the same volume of physiological saline was applied in the same manner in place of the test substances.
as §1, with “Further, For YDE-029” for “For YDE-001”, “Further, For YDE-029 to YDE-043,” for “For YDE-001 to YDE-028,”, “YDE-029 to YDE-043, YY-102 and” for “YDE-001 to YDE-028, YY-102 and”, “and the 15 YDE-series were” for “and the 28 YDE-series were”, “the test substances (FIG. 137).” for “the test substances.”
After YDE-001 to YDE-028 were each administered to the eyes […], the changes in the corneal permeability were checked.
In order to measure the corneal permeability, Zolethyl 50™ (Virbac Lab., Carros, France), an animal anesthetic, was intraperitoneally injected at a dose of 25 mg/kg. Thereafter, saline containing a 1% (v/v) fluorescent solution (fluorescein sodium salt, Tokyo Kasei Kogyo Co., Tokyo, Japan) was applied to the eyes at a dose of 5 μl/eye. The eyes thus treated were closed and fixed with a tape. After 1 hour, the remaining fluorescent solution was removed using a cotton swab (FIG. 142). […]

[2] = Stability in aqueous solution, amount of related substances under long-term storage conditions; format: physicochemical; settings: glass vial, 25° C., 75% RH
Description: In order to confirm the stability of each test substance in an aqueous solution, […] of each sample was dissolved in 1 ml of water to a concentration of 1 mg/ml, which was then charged to a glass vial, plugged with a rubber cap, sealed with an aluminum cap, and stored under long-term storage conditions (25° C., 75% RH). The stability of the test substance was evaluated by measuring the amount of related substances at the time of one week, two weeks, four weeks, eight weeks, and twelve weeks under the long-term storage conditions.

[3] = study of YDE-001 to YDE-028 (Table 16)
[4] = study of YDE-029 to YDE-043 (Table 17)

Amount of related substances (%; after 12 weeks) [2] [%]	Compound	Permeability of fluorescent dye (%) [1, 3] [%]	Permeability of fluorescent dye (%) [1, 4] [%]
3.92	CC(C)C[C@H](NC(=O)CNC(=O)[C@H](CCC(=O)O)NC(=O)[C@H](CCC(N)=O)NC(=O)CNC(=O)[C@@H]1C[C@@H](O)CN1)C(=O)N[C@@H](C)C(=O)NCC(=O)N1CCC[C@H]1C(=O)N[C@@H](CCCCN)C(=O)O [YDE-001, HyP-Gly-Gln-Glu-Gly-Leu-Ala-Gly-Pro-Lys] (H-[Hyp]GQEGLAGPK-OH)	25.49 ± 11.62	–
4.93	CC(C)C[C@H](NC(=O)CNC(=O)[C@H](CC(N)=O)NC(=O)[C@H](CCC(N)=O)NC(=O)CNC(=O)[C@@H]1C[C@@H](O)CN1)C(=O)N[C@@H](C)C(=O)NCC(=O)N1CCC[C@H]1C(=O)N[C@@H](CCCCN)C(=O)O [YDE-002, HyP-Gly-Gln-Asn-Gly-Leu-Ala-Gly-Pro-Lys] (H-[Hyp]GQNGLAGPK-OH)	38.26 ± 11.25	–
6.86	CC(C)C[C@H](NC(=O)CNC(=O)[C@H](CCC(N)=O)NC(=O)[C@H](CCC(N)=O)NC(=O)CNC(=O)[C@@H]1C[C@@H](O)CN1)C(=O)N[C@@H](C)C(=O)NCC(=O)N1CCC[C@H]1C(=O)N[C@@H](CCCCN)C(=O)O [YDE-003, HyP-Gly-Gln-Gln-Gly-Leu-Ala-Gly-Pro-Lys] (H-[Hyp]GQQGLAGPK-OH)	40.45 ± 6.46	–
3.67	CC(C)C[C@H](NC(=O)CNC(=O)[C@H](CO)NC(=O)[C@H](CCC(N)=O)NC(=O)CNC(=O)[C@@H]1C[C@@H](O)CN1)C(=O)N[C@@H](C)C(=O)NCC(=O)N1CCC[C@H]1C(=O)N[C@@H](CCCCN)C(=O)O [YDE-006, HyP-Gly-Gln-Ser-Gly-Leu-Ala-Gly-Pro-Lys] (H-[Hyp]GQSGLAGPK-OH)	33.23 ± 13.26	–
3.76	CC(C)C[C@H](NC(=O)CNC(=O)[C@@H](NC(=O)[C@H](CCC(N)=O)NC(=O)CNC(=O)[C@@H]1C[C@@H](O)CN1)C(C)O)C(=O)N[C@@H](C)C(=O)NCC(=O)N1CCC[C@H]1C(=O)N[C@@H](CCCCN)C(=O)O (stereo partly drawn) [YDE-007, HyP-Gly-Gln-Thr-Gly-Leu-Ala-Gly-Pro-Lys] (H-[Hyp]GQ[Thr(3ξ)]GLAGPK-OH)	32.79 ± 10.77	–
4.42	CC(C)C[C@H](NC(=O)CNC(=O)[C@H](C)NC(=O)[C@H](CCC(N)=O)NC(=O)CNC(=O)[C@@H]1C[C@@H](O)CN1)C(=O)N[C@@H](C)C(=O)NCC(=O)N1CCC[C@H]1C(=O)N[C@@H](CCCCN)C(=O)O [YDE-008, HyP-Gly-Gln-Ala-Gly-Leu-Ala-Gly-Pro-Lys] (H-[Hyp]GQAGLAGPK-OH)	20.32 ± 11.87	–
3.83	CC(C)C[C@H](NC(=O)CNC(=O)[C@H](CC(C)C)NC(=O)[C@H](CCC(N)=O)NC(=O)CNC(=O)[C@@H]1C[C@@H](O)CN1)C(=O)N[C@@H](C)C(=O)NCC(=O)N1CCC[C@H]1C(=O)N[C@@H](CCCCN)C(=O)O [YDE-011, HyP-Gly-Gln-Leu-Gly-Leu-Ala-Gly-Pro-Lys] (H-[Hyp]GQLGLAGPK-OH)	18.11 ± 11.61	–

The next lines start with the compound.

Compound	Amount of related substances (%; after 12 weeks) [2] [%]	Permeability of fluorescent dye (%) [1, 3] [%]	Permeability of fluorescent dye (%) [1, 4] [%]
CC(C)C[C@H](NC(=O)CNC(=O)[C@H](Cc1cnc[nH]1)NC(=O)[C@H](CCC(N)=O)NC(=O)CNC(=O)[C@@H]1C[C@@H](O)CN1)C(=O)N[C@@H](C)C(=O)NCC(=O)N1CCC[C@H]1C(=O)N[C@@H](CCCCN)C(=O)O [YDE-004, HyP-Gly-Gln-His-Gly-Leu-Ala-Gly-Pro-Lys] (H-[Hyp]GQHGLAGPK-OH)	2.11	35.05 ± 11.74	–
CC(C)C[C@H](NC(=O)CNC(=O)[C@H](CCCCN)NC(=O)[C@H](CCC(N)=O)NC(=O)CNC(=O)[C@@H]1C[C@@H](O)CN1)C(=O)N[C@@H](C)C(=O)NCC(=O)N1CCC[C@H]1C(=O)N[C@@H](CCCCN)C(=O)O [YDE-005, HyP-Gly-Gln-Lys-Gly-Leu-Ala-Gly-Pro-Lys] (H-[Hyp]GQKGLAGPK-OH)	2.97	37.98 ± 11.53	–
CC(C)C[C@H](NC(=O)CNC(=O)[C@H](Cc1ccccc1)NC(=O)[C@H](CCC(N)=O)NC(=O)CNC(=O)[C@@H]1C[C@@H](O)CN1)C(=O)N[C@@H](C)C(=O)NCC(=O)N1CCC[C@H]1C(=O)N[C@@H](CCCCN)C(=O)O [YDE-012, HyP-Gly-Gln-Phe-Gly-Leu-Ala-Gly-Pro-Lys] (H-[Hyp]GQFGLAGPK-OH)	3.57	31.01 ± 11.38	–
CC(C)C[C@H](NC(=O)CNC(=O)[C@H](Cc1ccc(O)cc1)NC(=O)[C@H](CCC(N)=O)NC(=O)CNC(=O)[C@@H]1C[C@@H](O)CN1)C(=O)N[C@@H](C)C(=O)NCC(=O)N1CCC[C@H]1C(=O)N[C@@H](CCCCN)C(=O)O [YDE-013, HyP-Gly-Gln-Tyr-Gly-Leu-Ala-Gly-Pro-Lys] (H-[Hyp]GQYGLAGPK-OH)	5.92	32.24 ± 7.84	–
CC(C)C[C@H](NC(=O)CNC(=O)[C@H](CC(C)C)NC(=O)[C@H](CCC(N)=O)NC(=O)CNC(=O)[C@@H]1C[C@@H](O)CN1)C(=O)N[C@@H](C)C(=O)NCC(=O)N1CCC[C@H]1C(=O)N[C@@H](CCC(=O)O)C(=O)O [YDE-031, HyP-Gly-Gln-Leu-Gly-Leu-Ala-Gly-Pro-Glu] (H-[Hyp]GQLGLAGPE-OH)	–	–	33.35 ± 11.01
CC(C)C[C@H](NC(=O)CNC(=O)[C@H](CC(C)C)NC(=O)[C@H](CCC(N)=O)NC(=O)CNC(=O)[C@@H]1CC(=O)CN1)C(=O)N[C@@H](C)C(=O)NCC(=O)N1CCC[C@H]1C(=O)N[C@@H](CCCCN)C(=O)O [YDE-035, (4-oxo)Pro-Gly-Gln-Leu-Gly-Leu-Ala-Gly-Pro-Lys] (H-[Pro(4-oxo)]GQLGLAGPK-OH)	–	–	27.62 ± 6.51
CC(C)C[C@H](NC(=O)CNC(=O)[C@H](CC(C)C)NC(=O)[C@H](CCC(N)=O)NC(=O)CNC(=O)[C@@H]1C[C@@H](F)CN1)C(=O)N[C@@H](C)C(=O)NCC(=O)N1CCC[C@H]1C(=O)N[C@@H](CCCCN)C(=O)O [YDE-039, (4-Fluoro)Pro-Gly-Gln-Leu-Gly-Leu-Ala-Gly-Pro-Lys] (H-[Pro(trans-4-F)]GQLGLAGPK-OH)	–	–	29.94 ± 11.40
CC(C)C[C@H](NC(=O)CNC(=O)[C@H](CC(C)C)NC(=O)[C@H](CCC(N)=O)NC(=O)CNC(=O)[C@@H]1CC(C)(C)CN1)C(=O)N[C@@H](C)C(=O)NCC(=O)N1CCC[C@H]1C(=O)N[C@@H](CCCCN)C(=O)O [YDE-040, (4-Dimethyl)Pro-Gly-Gln-Leu-Gly-Leu-Ala-Gly-Pro-Lys] (H-[Pro(4,4-Me2)]GQLGLAGPK-OH)	–	–	18.33 ± 9.41
CC(C)C[C@H](NC(=O)CNC(=O)[C@H](CC(C)C)NC(=O)[C@H](CCC(N)=O)NC(=O)CNC(=O)[C@@H]1C[C@@H](O)CN1)C(=O)O [YDE-042, HyP-Gly-Gln-Leu-Gly-Leu] (H-[Hyp]GQLGL-OH)	–	–	20.72 ± 11.37
CC(C)C[C@H](NC(=O)[C@H](CCC(N)=O)NC(=O)CNC(=O)[C@@H]1C[C@@H](O)CN1)C(=O)NCC(=O)O [YDE-043, HyP-Gly-Gln-Leu-Gly] (H-[Hyp]GQLG-OH)	–	–	19.04 ± 7.36
PGQLGLAGPK [YDE-037, Pro-Gly-Gln-Leu-Gly-Leu-Ala-Gly-Pro-Lys]	–	–	36.30 ± 9.75
